In patent US20070219208A1, “Methods for Treating Cancer” (priority 2006, published 2007):
“Also recorded” adds a separate entry of the source.

How the values were obtained:
[1] = system: MCF-7 cells; experiment: Soft agar assay for colony formation (anchorage-independent growth); assay type: cell-based; settings: for visible colony formation in soft agar: MCF-7 cells, 10 μM, treated 40 h, colonies after 21 days
Procedure: Soft Agar Assay for Colony Formation:
After cells were treated with various conditions, they were seeded in six-well plates. The plates were first covered with phenol red-free MEM containing 0.6% agar and 10% FBS. The middle layer contained cells (5×10^3) in phenol red-free MEM with 0.35% agar and 10% FBS. The top layer, consisting of the medium, was added to prevent drying of the agar in the plates. The plates were incubated for 21 days, after which the plates were stained in 0.5 ml of 0.005% crystal violet for 1 h and the cultures were inspected and photographed. The colony efficiency (CE) was determined by a count of the number of colonies greater than […] in diameter, which was calculated as the average of colonies counted at 50× magnification in five individual fields manually (Liu S, et al. Oncogene, 23:1256-62, 2004).
The long-term effects of statins and the inhibitors on the proliferation and survival of MCF-7 cells were determined using clonogenic assays (Ramanathan B, et al. Cancer Res, 65:8455-60, 2005). The extent of malignancy of cells corresponds to the attainment of anchorage-independent growth (Liu S, et al. Oncogene, 23:1256-62, 2004). MCF-7 cells were treated with simvastatin or fluvastatin in the presence or absence of either 1400 W or mevalonate or sepiapterin. In separate experiments, cells were treated with either GGTI-298 or FTI-277. At the end of the treatments, approximately 5×10^3 cells were seeded onto a soft agar to determine their clonogenic efficiency after 21 days. […] In the presence of either 1400 W or mevalonate, the colony formation was restored in statin-treated cells (FIG. 6B).

[2] = system: cyclin D1, cyclin E and p27 in MCF-7 cells; experiment: Cell cycle protein levels by Western analysis (cyclin D1, cyclin E, p27); assay type: cell-based; settings: 1400 W 10 μM or mevalonate 20 μM
Procedure: A (Table): The cell cycle distribution of MCF-7 cells treated with either simvastatin or fluvastatin (5-10 μM) for 40 h in the presence or 1400 W (10 μM) or mevalonate (20 μM). The cell sorting was performed by flow cytometry as described in “Materials and Methods.” B: Cells were treated with simvastatin or fluvastatin (10 μM) in the presence or absence of 1400 W (10 μM) or mevalonate (20 μM) for 40 h and cyclins D1 and E protein levels were measured by the Western analysis using the corresponding polyclonal or monoclonal antibodies. Data are representative of three separate experiments.
After treatment with statins, cells were washed with ice-cold DPBS and resuspended in 150 μl of radioimmune precipitation assay buffer (20 mM Tris-HCl, pH 7.4, 2.5 mM EDTA, 1% Triton X-100, 1% sodium deoxycholate, 1% SDS, 100 mM NaCl, 100 mM sodium fluoride) containing 1 mM sodium vanadate, 10 μg/ml aprotinin, 10 μg/ml leupeptin, and 10 μg/ml pepstatin inhibitors. Cells were homogenized by passing the suspension through a 25-gauge needle (20 strokes). The lysate was centrifuged at 750×g for 10 min at 4° C. to pellet out the nuclei. The remaining supernatant was centrifuged for 30 min at 12,000×g. Protein was determined using the Lowry method and 50 μg of the lysate was used for the Western blot analysis. […] The band was detected using the ECL method (Amersham Biosciences).

[3] = system: MCF-7 cells; experiment: Apoptosis by TUNEL assay; assay type: cell-based; settings: with simvastatin or fluvastatin 5-10 μM, 48 h, 1400 W 10 μM, sepiapterin 50 μM, mevalonate 20 μM
From the text: Measurement of Apoptosis by TUNEL Assay:
The terminal deoxynucleotidyl transferase-mediated nick-end labeling (TUNEL) assay was used for microscopic detection of apoptosis (Kotamraju S, et al. J Biol Chem, 277:17179-87, 2002). This assay is based on labeling of 3′ free hydroxyl ends of the fragmented DNA with fluorescein-dUTP catalyzed by terminal deoxynucleotidyl transferase. Procedures were followed according to a commercially available kit (ApoAlert) from Clontech. […] The apoptotic cells were detected by fluorescence microscopy equipped with rhodamine and FITC filters. The quantification of apoptosis was performed using the Metamorph image analysis package.
Under these conditions, NO2^−/NO3^− levels were decreased (FIG. 4B). […] Further verification that iNOS is involved in […] NO was obtained from inhibition of geranylgeranylation and farnesylation. […] In contrast, FTI-277 (farnesylation inhibitor) and sepiapterin had no effect on NO2^−/NO3^− levels (FIG. 4C). […] In the TUNEL assay, cells were treated with simvastatin or fluvastatin (5-10 μM) for 48 h in the presence or absence of 1400 W (10 μM), sepiapterin (50 μM) or mevalonate (20 μM) and stained for TUNEL-positive cells as an index of DNA fragmentation monitored by fluorescence microscopy (original magnification, ×100). Photographs were taken for the overlaid images of propidium iodide-and FITC-stained cells (TUNEL-positive cells). Yellow and red denote apoptotic and nonapoptotic cells, respectively. We observed that the TUNEL positive staining was enhanced in statin-treated MCF-7 cells. […] Pretreatment with 1400 W or mevalonate caused a decrease in the TUNEL positive cells.

[4] = system: MCF-7 cells; experiment: Cell cycle analysis by flow cytometry; assay type: cell-based; settings: 1400 W 10 μM, mevalonate 20 μM
Procedure: For DNA content analysis, harvested cells were centrifuged at 1,000×g for 5 min, fixed by the gradual addition of ice-cold 70% ethanol, and washed with PBS. Cells were then treated with RNase (10 μg/mL) for 30 min at 37° C., washed once with PBS, and resuspended and stained in 1 mL of 69 μmol/L propidium iodide in 38 mmol/L sodium citrate for 30 min at room temperature. The cell cycle phase distribution was determined by analytic DNA flow cytometry as described in (Vindelov L, et al. Methods Cell Biol, 33:127-37, 1990). The percentage of cells in each phase of the cell cycle was analyzed using a Modfit software (Verity Software House, Topsham, Me.).
As NO has previously been reported to exert tumor cell cycle alterations (Pervin S, et al. Natl Acad Sci USA 98:3583-3588, 2001), we investigated the cytostatic effect of statins in MCF-7 cells. MCF-7 cells were treated with simvastatin and fluvastatin for […] in the presence and absence of 1400 W (10 μM) and mevalonate (20 μM). Cell cycle progression was examined using FACScan flow cytometry analysis. […] As cell cycle progression from […] involves activations of the cell regulatory proteins, cyclins D and E, we investigated the effects of statins and iNOS inhibitor on the cell cycle proteins. […]

[5] = system: NO2-/NO3- levels in MCF-7 cells; experiment: Nitrite and nitrate measurements by chemiluminescence (NO analyzer); assay type: cell-based; settings: for effect on statin-induced NO / NO2-/NO3- levels: with simvastatin or fluvastatin (10 μM), 40 h, mevalonate 20 μM, 1400 W 10 μM, sepiapterin 50 μM, compared to statin alone
Procedure: Briefly, following treatments, cells were washed three times with DPBS after aspirating the medium. To this, 1 ml of Hanks' balanced salt mixture containing 25 μM L-arginine was added and incubated for 30 min at 37° C. The medium was collected and centrifuged for 5 min at 5000 rpm, and 50 μl of the clear supernatant was used for nitrate and nitrite analysis. Each sample was analyzed in triplicate.

[6] = system: MCF-7 breast cancer cells; experiment: MTT reduction cytotoxicity assay in MCF-7 cells; settings: 48 h; for MCF-7 cell death (MTT assay) by isoprenylation inhibitors: 10-20 μM
Procedure: MTT Reduction Cytotoxicity Assay:
MTT is taken up by cells and is reduced to a colored formazon product that can be detected by spectrophotometry (max=562 nm). Reduction of MTT is dependent upon the mitochondrial respiratory function, and thus measures the relative number of viable cells in the culture. After the treatment was completed, MCF-7 cells were washed twice with DPBS and taken in a ml of MEM without FBS and incubated with 5 mg/ml MTT solution for 1 h at 37° C. Medium was removed and cells were solubilized in DMSO. The absorption was measured at 562 nm with reference at 630 nm.
We assessed the effectiveness of simvastatin and fluvastatin to induce cytotoxicity in MCF-7 cells. MCF-7 breast cancer cells were treated with fluvastatin or simvastatin at different concentrations (0.5-20 μM) for 24-48 h. The changes in the number of viable cells were determined using the MTT assay that monitors the intracellular conversion of MTT to formazon spectrophotometrically max=562 nm).

[7] = system: MCF-7 cells; experiment: 3H-thymidine uptake (DNA synthesis / cell proliferation); assay type: cell-based; settings: 10-20 μM
Procedure: Thymidine Uptake Studies:
DNA synthesis was measured by monitoring the uptake of tritiated thymidine, [^3H]TdR (Perkin-Elmer, Boston, Mass.). Cells (5×10^5/ml) were cultured with different concentrations of simvastatin or fluvastatin (0-10 μM) in the presence or absence of mevalonate (20 μM), 1400 W, or sepiapterin. Cells were pulse-chased with [^3H]TdR [0.5 μCi (0.185 MBq)/well during the last 3 h of a 24 h culture, harvested onto glass filters with an automatic cell harvester (Cambridge Technology, Cambridge, Mass.), and counted using the LKB Betaplate scintillation counter (Wallac, Gaithersburg, Md.). All experiments were performed in triplicate and repeated three times.

[8] = system: iNOS in MCF-7 cells; experiment: iNOS mRNA (RT-PCR) and protein (Western) levels; assay type: cell-based; settings: MCF-7 cells, 10-20 μM, 40 h, Western analysis
Procedure: After treatment with statins, cells were washed with ice-cold DPBS and resuspended in 150 μl of radioimmune precipitation assay buffer (20 mM Tris-HCl, pH 7.4, 2.5 mM EDTA, 1% Triton X-100, 1% sodium deoxycholate, 1% SDS, 100 mM NaCl, 100 mM sodium fluoride) containing 1 mM sodium vanadate, 10 μg/ml aprotinin, 10 μg/ml leupeptin, and 10 μg/ml pepstatin inhibitors. Cells were homogenized by passing the suspension through a 25-gauge needle (20 strokes). The lysate was centrifuged at 750×g for 10 min at 4° C. to pellet out the nuclei. The remaining supernatant was centrifuged for 30 min at 12,000×g. Protein was determined using the Lowry method and 50 μg of the lysate was used for the Western blot analysis. Proteins were resolved using the SDS-polyacrylamide gels and blotted onto nitrocellulose membranes. Membranes were washed with TBS (140 mM NaCl, 50 mM Tris-HCl, pH 7.2) containing 0.1% Tween 20 (TBST) and 5% skim milk to block the non-specific protein binding. Membranes were incubated with 1 μg/ml rabbit anti-iNOS polyclonal antibody (Abeam, Cambridge, Mass.), mouse anti-cyclin D1 antibody, mouse anti-cyclin E antibody (BD Biosciences, San Jose, Calif.) or rabbit anti-p27 antibody (Chemicon International, Temecula, Calif.) in TBST for overnight at 4° C., washed 5 times with TBST, and then incubated with goat anti-rabbit or rabbit anti-mouse IgG-horseradish peroxidase-conjugated secondary antibody (1:5,000) for 1.5 h at room temperature. The band was detected using the ECL method (Amersham Biosciences).
Following the treatments, medium was aspirated and 1 ml of TRIzol reagent (Invitrogen) was added and total RNA was extracted using the manufacturer's protocol. Five μg of RNA was used for the first strand cDNA synthesis using a first strand cDNA synthesis kit (Amersham Biosciences). […]

With `CC(=N)NCc1cccc(CN)c1` [1400 W, N-(3-aminomethyl)benzylacetamidine] the “colony formation in statin-treated cells in the presence of modulator” value ([1]; 1400 W 10 μM or mevalonate 20 μM with statin 10 μM) was “restored”, the “effect on statin-induced decrease of cyclin D1 and cyclin E” value [2] was “restored in part” and the “effect on statin-induced TUNEL-positive cells (proapoptotic effect)” value (“effect … (proapoptotic effect)” for short) [3] was “decrease”. The “effect on statin-induced cell cycle alterations” value [4] was “partially reversed” and the “effect on statin-induced NO / NO2-/NO3- levels” value [5] was “inhibited; also recorded: decreased”.

For N-nitroso-fluvastatin [NO-fluvastatin], the “potency in causing MCF-7 cell death compared to fluvastatin alone (MTT assay)” value ([6]; 0-1 μM) was “more potent”.

With `CC(C)=CCC/C(C)=C/CC/C(C)=C/CC/C=C(\C)CC/C=C(\C)CCC=C(C)C` [squalene] the “effect on statin-induced MCF-7 cell cytotoxicity (MTT assay)” value ([6]; pretreatment before simvastatin or fluvastatin (10 μM), mevalonate 20 μM, 1400 W 10 μM) was “did not prevent”.

`COC(=O)[C@H](CC(C)C)NC(=O)c1ccc(NC[C@@H](N)CS)cc1-c1cccc2ccccc12` [GGTI-298, N-4-[2(R)-amino-3-mercaptopropyl]amino-2-naphthylbenzoyl-(L)-leucine methyl ester] was tested, and the “visible colony formation in soft agar” value [1] was “drastically lowered”, the “loss of MCF-7 cell proliferation (3H-thymidine uptake) by isoprenylation inhibitors” value [7] was “loss of cell proliferation” and the “MCF-7 cell death (MTT assay) by isoprenylation inhibitors” value [6] was “induced MCF-7 cell death”. For the same compound, the “iNOS protein levels by isoprenylation inhibitors” value [8] was “dose-dependently induced”.

For `COC(=O)[C@H](CCSC)NC(=O)c1ccc(NC[C@@H](N)CS)cc1-c1ccccc1` [FTI-277, methyl {N-[2-phenyl-4-N[2(R)-amino-3-mecaptopropylamino]benzoyl]}-methionate], the “visible colony formation in soft agar” value [1] was “not”, the “loss of MCF-7 cell proliferation (3H-thymidine uptake) by isoprenylation inhibitors” value [7] was “not” and the “MCF-7 cell death (MTT assay) by isoprenylation inhibitors” value [6] was “not”. The “iNOS protein levels by isoprenylation inhibitors” value [8] was “not”.

In the case of `C[C@H](O)C(=O)C1=Nc2c(nc(N)[nH]c2=O)NC1` [sepiapterin], the “colony growth, sepiapterin supplementation with simvastatin or fluvastatin” value ([1]; lower concentration of simvastatin or fluvastatin (5 μM), sepiapterin 50 μM) is reported as “completely inhibited”, the “effect … (proapoptotic effect)” value [3] is reported as “exacerbated” and the “effect … (proapoptotic effect)” value ([3]; listed as Sepiapterin) is reported as “further augmented”. The “NO2-/NO3- levels, sepiapterin with FTI-277” value ([5]; MCF-7 cells) was “no effect”, the “NO2-/NO3- levels, sepiapterin with GGTI-298 compared to GGTI-298 alone” value ([5]; MCF-7 cells) was “significantly increased” and the “NO2-/NO3- levels, sepiapterin alone” value ([5]; in the absence of statin) was “did not increase”. For the same compound, the “effect on statin-induced NO / NO2-/NO3- levels” value [5] was “significantly increased”.
